Reference: patent US7642245B2, “Antibacterial compounds having a (pyrrole carboxamide)-(benzamide)-(imidazole carboxamide) motif” (Oscient Pharmaceuticals Corporation, priority 2002, dated 2010)

Experiments:
S. aureus ATCC 13709 = test: MIC, NCCLS broth microdilution; type: cell-based, Staphylococcus aureus; conditions: A = S. aureus ATCC 13709 (MSSA)
Excerpt: (§1) In vitro biological activity data were collected for a variety of microorganisms, including Staphylococcus aureus (ATCC 27660, a methicillin resistant strain (MRSA); ATCC 13709, a methicillin sensitive strain (MSSA)), Enterococcus faecalis (ATCC 29212), Bacillus cereus (ATCC 11778), Streptococcus pneumoniae (ATCC 49619), Candida albicans (ATCC 38247), Escherichia coli (ATCC 25922), and Moraxella (now Branhamella) catarrhalis (ATCC 25238).
(§2) The minimal inhibition concentration (MIC) of these compounds was determined using the National Committee for Clinical Laboratory Standards (NCCLS) broth microdilution assay in microtiter plates, as set forth in: (1) the guidelines of the National Committee for Clinical Laboratory Standards (NCCLS) Document M7-A4 (NCCLS, 1997); (2) the guidelines of the National Committee for Clinical Laboratory Standards (NCCLS) Document M11-A4 (NCCLS, 1997); and (3) the guidelines and reference method of the National Committee for Clinical Laboratory Standards (NCCLS) Document M27-T (NCCLS, 1995). For antifungal assays, the method recommended in Murray, P R., 1995 Manual of Clinical Microbiology (ASM Press, Washington, DC.), was employed.

S. aureus ATCC 27660 = test: MIC, NCCLS broth microdilution; type: cell-based, Staphylococcus aureus; conditions: B = S. aureus ATCC 27660 (MRSA)
Excerpt: as §1, §2

E. faecalis ATCC 29212 = test: MIC, NCCLS broth microdilution; type: cell-based, Enterococcus faecalis; conditions: C = E. faecalis ATCC 29212
Excerpt: as §1, §2

B. cereus ATCC 11778 = test: MIC, NCCLS broth microdilution; type: cell-based, Bacillus cereus; conditions: D = B. cereus ATCC 11778
Excerpt: as §1, §2

S. pneumoniae ATCC 49619 = test: MIC, NCCLS broth microdilution; type: cell-based, Streptococcus pneumoniae; conditions: E = S. pneumoniae ATCC 49619
Excerpt: as §1, §2

C. albicans ATCC 38247 = test: MIC, antifungal assay; type: cell-based, Candida albicans; conditions: F = C. albicans ATCC 38247
Excerpt: as §1, §2

E. coli ATCC 25922 = test: MIC, NCCLS broth microdilution; type: cell-based, Escherichia coli; conditions: G = E. coli ATCC 25922
Excerpt: as §1, §2

[1] = tested on: M. catarrhalis (ATCC 25238); test: MIC, NCCLS broth microdilution; type: cell-based, Moraxella (now Branhamella) catarrhalis; conditions: H = M. catarrhalis (ATCC 25238)
Excerpt: as §1, §2

Row | Compound | Minimum Inhibitory Concentration (MIC) (S. aureus ATCC 13709) | Minimum Inhibitory Concentration (MIC) (S. aureus ATCC 27660) | Minimum Inhibitory Concentration (MIC) (E. faecalis ATCC 29212) | Minimum Inhibitory Concentration (MIC) (B. cereus ATCC 11778) | Minimum Inhibitory Concentration (MIC) (S. pneumoniae ATCC 49619) | Minimum Inhibitory Concentration (MIC) (C. albicans ATCC 38247) | Minimum Inhibitory Concentration (MIC) (E. coli ATCC 25922) | Minimum Inhibitory Concentration (MIC) [1]
1 | Cn1cc(NC(=O)c2cc3ccccc3cn2)cc1C(=O)Nc1ccc(C(=O)Nc2cn(C)c(C(=O)NCCNc3ccccn3)n2)cc1 [Compound A-23] | +++ (MIC ≦ 4 μg/mL) | +++ (MIC ≦ 4 μg/mL) | +++ (MIC ≦ 4 μg/mL) | +++ (MIC ≦ 4 μg/mL) | +++ (MIC ≦ 4 μg/mL) | >32 µg/mL | >32 µg/mL | +++ (MIC ≦ 4 μg/mL)
2 | Cn1cc(NC(=O)c2cc3ccccc3cn2)cc1C(=O)Nc1ccc(C(=O)Nc2cn(C)c(C(=O)NCCN3CCCCCC3)n2)cc1 [Compound A-24] | +++ (MIC ≦ 4 μg/mL) | +++ (MIC ≦ 4 μg/mL) | +++ (MIC ≦ 4 μg/mL) | +++ (MIC ≦ 4 μg/mL) | +++ (MIC ≦ 4 μg/mL) | ++ (4 < MIC < 12 μg/mL) | >32 µg/mL | +++ (MIC ≦ 4 μg/mL)
3 | CCN(CC)CCNC(=O)c1nc(NC(=O)c2ccc(NC(=O)c3cc(NC(=O)c4cc5ccccc5cn4)cn3C)cc2)cn1C [Compound A-25] | +++ (MIC ≦ 4 μg/mL) | +++ (MIC ≦ 4 μg/mL) | +++ (MIC ≦ 4 μg/mL) | +++ (MIC ≦ 4 μg/mL) | +++ (MIC ≦ 4 μg/mL) | >32 µg/mL | >32 µg/mL | +++ (MIC ≦ 4 μg/mL)
4 | Cn1cc(NC(=O)c2cc3ccccc3cn2)cc1C(=O)Nc1ccc(C(=O)Nc2cn(C)c(C(=O)NCCNCCN3CCOCC3)n2)cc1 [Compound A-26] | +++ (MIC ≦ 4 μg/mL) | +++ (MIC ≦ 4 μg/mL) | +++ (MIC ≦ 4 μg/mL) | +++ (MIC ≦ 4 μg/mL) | +++ (MIC ≦ 4 μg/mL) | >32 µg/mL | >32 µg/mL | >32 µg/mL
5 | Cn1cc(NC(=O)c2cc3ccccc3cn2)cc1C(=O)Nc1ccc(C(=O)Nc2cn(C)c(C(=O)NCCN3CCN(CCO)CC3)n2)cc1 [Compound A-27] | +++ (MIC ≦ 4 μg/mL) | +++ (MIC ≦ 4 μg/mL) | +++ (MIC ≦ 4 μg/mL) | +++ (MIC ≦ 4 μg/mL) | +++ (MIC ≦ 4 μg/mL) | >32 µg/mL | >32 µg/mL | +++ (MIC ≦ 4 μg/mL)
6 | COCCNCCNC(=O)c1nc(NC(=O)c2ccc(NC(=O)c3cc(NC(=O)c4cc5ccccc5cn4)cn3C)cc2)cn1C [Compound A-28] | +++ (MIC ≦ 4 μg/mL) | +++ (MIC ≦ 4 μg/mL) | +++ (MIC ≦ 4 μg/mL) | +++ (MIC ≦ 4 μg/mL) | +++ (MIC ≦ 4 μg/mL) | + (12 ≦ MIC ≦ 32 μg/mL) | ++ (4 < MIC < 12 μg/mL) | +++ (MIC ≦ 4 μg/mL)
7 | COCCN(C)CCNC(=O)c1nc(NC(=O)c2ccc(NC(=O)c3cc(NC(=O)c4cc5ccccc5cn4)cn3C)cc2)cn1C [Compound A-29] | +++ (MIC ≦ 4 μg/mL) | +++ (MIC ≦ 4 μg/mL) | +++ (MIC ≦ 4 μg/mL) | +++ (MIC ≦ 4 μg/mL) | +++ (MIC ≦ 4 μg/mL) | + (12 ≦ MIC ≦ 32 μg/mL) | ++ (4 < MIC < 12 μg/mL) | +++ (MIC ≦ 4 μg/mL)
8 | CCOCCCNCCNC(=O)c1nc(NC(=O)c2ccc(NC(=O)c3cc(NC(=O)c4cc5ccccc5cn4)cn3C)cc2)cn1C [Compound A-31] | +++ (MIC ≦ 4 μg/mL) | +++ (MIC ≦ 4 μg/mL) | ++ (4 < MIC < 12 μg/mL) | ++ (4 < MIC < 12 μg/mL) | +++ (MIC ≦ 4 μg/mL) | + (12 ≦ MIC ≦ 32 μg/mL) | >32 µg/mL | >32 µg/mL
9 | CCN(CCO)CCNC(=O)c1nc(NC(=O)c2ccc(NC(=O)c3cc(NC(=O)c4cc5ccccc5cn4)cn3C)cc2)cn1C [Compound A-32] | +++ (MIC ≦ 4 μg/mL) | +++ (MIC ≦ 4 μg/mL) | +++ (MIC ≦ 4 μg/mL) | +++ (MIC ≦ 4 μg/mL) | +++ (MIC ≦ 4 μg/mL) | >32 µg/mL | >32 µg/mL | +++ (MIC ≦ 4 μg/mL)
10 | Cn1cc(NC(=O)c2cc3ccccc3cn2)cc1C(=O)Nc1ccc(C(=O)Nc2cn(C)c(C(=O)NCCNCCCCCO)n2)cc1 [Compound A-33] | +++ (MIC ≦ 4 μg/mL) | +++ (MIC ≦ 4 μg/mL) | +++ (MIC ≦ 4 μg/mL) | +++ (MIC ≦ 4 μg/mL) | +++ (MIC ≦ 4 μg/mL) | >32 µg/mL | +++ (MIC ≦ 4 μg/mL) | >32 µg/mL
11 | Cn1cc(NC(=O)c2cc3ccccc3cn2)cc1C(=O)Nc1ccc(C(=O)Nc2cn(C)c(C(=O)NCCNCC3CC3)n2)cc1 [Compound A-34] | +++ (MIC ≦ 4 μg/mL) | +++ (MIC ≦ 4 μg/mL) | +++ (MIC ≦ 4 μg/mL) | +++ (MIC ≦ 4 μg/mL) | +++ (MIC ≦ 4 μg/mL) | >32 µg/mL | +++ (MIC ≦ 4 μg/mL) | +++ (MIC ≦ 4 μg/mL)
12 | Cn1cc(NC(=O)c2cc3ccccc3cn2)cc1C(=O)Nc1ccc(C(=O)Nc2cn(C)c(C(=O)NCCNC3CCCCC3)n2)cc1 [Compound A-35] | +++ (MIC ≦ 4 μg/mL) | +++ (MIC ≦ 4 μg/mL) | +++ (MIC ≦ 4 μg/mL) | +++ (MIC ≦ 4 μg/mL) | +++ (MIC ≦ 4 μg/mL) | >32 µg/mL | >32 µg/mL | ++ (4 < MIC < 12 μg/mL)
